Laboratory results published in patent publication US20180021319A1, “COMPOSITIONS AND METHODS FOR TREATING GASTROINTESTINAL INFECTIONS” (The Regents of the University of California, priority 2015, published 2018).

System: Helicobacter pylori
Assay: Dual therapy of AGN 201904 with amoxicillin to treat H. pylori infection
Type: in vivo
Conditions: AGN 201904 with amoxicillin alone (dual therapy), compared to standard H. pylori infection therapies

Structure (SMILES): COc1ccc2c(c1)nc([S+]([O-])Cc1ncc(C)c(OC)c1C)n2S(=O)(=O)c1ccc(OCC(=O)O)cc1 (centres unmarked) [AGN 201904]
- H. pylori eradication rate: higher eradication rate
- H. pylori resistance: no H. pylori resistance
